Laboratory results as given in US20170151200A1, “PROPHYLACTIC OR THERAPEUTIC AGENT FOR IDIOPATHIC INFLAMMATORY MYOPATHIES” (EA Pharma Co., Ltd., priority 2012, published 2017).

Experiments:
[1] = test system: C-protein-induced mouse myositis model (CIM mouse); experiment: Sectional area of fast muscle fiber (MHC IIB-positive) of triceps in CIM mouse; type: in vivo; conditions: triceps 21 days after immunization, 0.75 g/kg BCAA or 20 mg/kg PSL oral, histogram shift toward the left side = atrophy, FIG. 4
Description: (§1) Using C-protein-induced mouse myositis model (C-protein-induced Myositis: CIM), the effect of BCAA on the inflammation of muscular tissues was examined. For antigen immunization of C57BL/6 mouse (female, 8-week-old), an adjuvant containing 200 μg C-protein and 100 μg killed tuberculosis bacterium (Mycobacterium butyricum), and Complete Freund's adjuvant (CFA) as a component was intradermally injected to the hindpaw sole and tail base, C-protein-free CFA injected to the base of forelimb, and 0.25 μg pertussis toxin was intraperitoneally injected. As an adjuvant control without immunization with an antigen, CFA was intradermally injected to the same sites. […] After 21 days from immunization, the muscle was collected, and the levels of inflammation of quadriceps and flexor muscles were evaluated by the inflammation score.
Since steroid myopathy is predominantly developed in the fast muscle fiber (MHC IIB-positive fiber), atrophy of the muscle fiber of the CIM mouse was evaluated by measuring the sectional area of the muscle fiber. The boundary area of the fast muscle fiber and the muscle fiber of the section of the triceps collected 21 days after the immunization was labeled by immune fluorescent staining using anti-MHC IIB antibody and anti-Laminin antibody (Sigma), and the sectional area of the MHC IIB-positive muscle fiber was measured using Image J software (NIH). […]

[2] = test system: C-protein-induced mouse myositis model (CIM mouse); experiment: Inflammation score of muscular tissue in C-protein-induced mouse myositis model (CIM); type: in vivo; conditions: 0.75 g/kg BCAA or 20 mg/kg PSL oral consecutively from 3 days after immunization, 21 days after immunization, vs Vehicle group, FIG. 1
Description: Using C-protein-induced mouse myositis model (C-protein-induced Myositis: CIM), the effect of BCAA on the inflammation of muscular tissues was examined. For antigen immunization of C57BL/6 mouse (female, 8-week-old), an adjuvant containing 200 μg C-protein and 100 μg killed tuberculosis bacterium (Mycobacterium butyricum), and Complete Freund's adjuvant (CFA) as a component was intradermally injected to the hindpaw sole and tail base, C-protein-free CFA injected to the base of forelimb, and 0.25 μg pertussis toxin was intraperitoneally injected. As an adjuvant control without immunization with an antigen, CFA was intradermally injected to the same sites. From three days after immunization, 0.75 g/kg BCAA (mixture of isoleucine, leucine and valine at a weight ratio of isoleucine:leucine:valine=1:2:1.2) or 20 mg/kg Prednisolone (PSL) was orally administered consecutively, and they were used as the BCAA administration group and the PSL administration group, respectively. In addition, 0.5% methylcellulose and 5% gamma cyclodextrin were orally administered instead of BCAA and the like to give the Vehicle administration group. After 21 days from immunization, the muscle was collected, and the levels of inflammation of quadriceps and flexor muscles were evaluated by the inflammation score. […]

[3] = test system: C-protein-induced mouse myositis model (CIM mouse); experiment: Forelimb muscle strength by grip dynamometer in CIM mouse; type: in vivo; conditions: 20 days after immunization
Description: as §1
After 20 days from immunization, the muscle strength of the forelimb of each mouse was measured by a veterinary grip dynamometer MK-380CM/R (Muromachi Kikai Co., Ltd.). The measurement was performed 6 times for each animal, and the average thereof was determined. […]
The muscle strength of the forelimb of each mouse was measured after 20 days from the immunization in Example 5 using veterinary grip dynamometer MK-380CM/R (Muromachi Kikai Co., Ltd.). The measurement was performed 6 times for each animal, and the average thereof was determined.

[4] = test system: C-protein-induced mouse myositis model (CIM mouse); experiment: Muscle weight (quadriceps, hamstring/flexor muscles, triceps) in CIM mouse; type: in vivo; conditions: 21 days after immunization
Description: as §1
Quadriceps, flexor muscles and triceps were collected from the CIM mouse and control mouse (Ctrl) after 21 days from immunization, and the muscle weight was measured. […]
Quadriceps, hamstrings, and triceps were collected from the CIM mouse and control mouse (Ctrl) of Example 5 after 21 days from the immunization, and the muscle weight was measured.

[5] = test system: patients with polymyositis, dermatomyositis and inclusion body myositis; conditions: cited from earlier work

## C[C@]12C=CC(=O)C=C1CC[C@@H]1[C@@H]2[C@@H](O)C[C@@]2(C)[C@H]1CC[C@]2(O)C(=O)CO [PSL, Prednisolone]
[1]
  distribution of fast muscle fiber sectional area (muscle fiber atrophy): tendency was stronger
[2]
  inflammation score: significantly suppressed
[3]; CIM mouse of Example 5, 0.25, 0.75 or 2.25 g/kg BCAA + 20 mg/kg PSL, or 20 mg/kg PSL alone, oral, FIG. 7
  strength of the forelimb muscle: did not increase
[3]; CIM mouse, 0.75 g/kg BCAA or 20 mg/kg PSL oral, FIG. 3
  muscle strength of the forelimb: improvement effect was weak
[4]; CIM mouse of Example 5, 0.25, 0.75 or 2.25 g/kg BCAA + 20 mg/kg PSL, or 20 mg/kg PSL alone, oral, FIG. 6
  muscle weight: did not increase
[4]; CIM mouse, 0.75 g/kg BCAA or 20 mg/kg PSL oral, quadriceps, flexor muscles, triceps, FIG. 2
  muscle weight: did not show improvement

## Anakinra: IL-1 receptor antagonist
[5]; polymyositis and dermatomyositis, Ann Rheum Dis. 2011;70:A80-A81
  anti-inflammatory effect: has not been observed

## Infliximab: anti-TNF antibody effective for rheumatoid arthritis
[5]; patients with polymyositis, dermatomyositis and inclusion body myositis, Ann Rheum Dis. 2008;67(12):1670-7
  effect on inflammation in patients: aggravation of inflammation and activation of type I interferons
